Here are results for 32 compounds from patent US20090048269A1 (AstraZeneca AB, priority 2007, published 2009).

The target in the assay is T1, human ALK5 (Homo sapiens, UniProt P36897).
T1 sequence (P36897 162-503): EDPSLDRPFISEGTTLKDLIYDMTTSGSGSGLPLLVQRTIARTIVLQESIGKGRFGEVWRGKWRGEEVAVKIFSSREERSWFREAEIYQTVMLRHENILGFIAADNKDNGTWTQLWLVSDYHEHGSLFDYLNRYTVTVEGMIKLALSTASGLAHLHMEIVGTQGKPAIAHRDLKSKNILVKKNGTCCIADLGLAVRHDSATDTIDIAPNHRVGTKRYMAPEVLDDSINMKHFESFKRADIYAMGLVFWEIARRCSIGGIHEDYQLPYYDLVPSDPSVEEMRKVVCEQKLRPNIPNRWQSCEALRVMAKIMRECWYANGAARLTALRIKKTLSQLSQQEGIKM
In words: ALK5 Enzyme Assay 2 (fluorescence polarisation probe displacement). The class given is binding. Also noted: 6His tagged human ALK5 (residues162-503) was grown and purified from insect cells; 6His; made in house; host or cells: insect cells. The settings on record: read-out: EAA2: activity (μM) using Enzyme Assay 2. As to the method: The ability of a compound to bind and inhibit ALK5 can be measured by its capacity to displace a probe molecule from recombinant ALK5 in an in vitro assay. Provided the probe molecule is derivatised with a fluorescent probe or is fluorescent itself, the binding affinity can be measured using Fluorescence Polarisation (FP). […] Assay measurements were performed in 50 mM HEPES pH7.4, 10 mM MgCl2, 1 mM DTT, 0.01% CHAPS in a final assay volume of 12 μl. Briefly 6 μl of ALK5 protein, final concentration of 3 μg/mL, was added to each well of a 384 well assay plate containing 12 nL of each concentration of test compound dissolved in DMSO. 6 μL of a solution containing an ALK5 FP probe ((2Z)-3-(6-{4-[2-({4-[(6-chloro[1,3]dioxolo[4,5-b]pyridin-7-yl)amino]-5-(1-methylethoxy)quinazolin-7-yl}oxy)ethyl]piperazin-1-yl}-6-oxohexyl)-2-[(2E,4E)-5-(3-ethyl-1,1-dimethyl-6,8-disulfo-1H-benzo[e]indolium-2-yl)penta-2,4-dien-1-ylidene]-1,1-dimethyl-6-sulfo-2,3-dihydro-1H-benzo[e]indole-8-sulfonate), final concentration 50 nM, and ATP, final concentration 1 μM.
A general note: In fluorescence polarisation assays a small probe gives low polarisation when free and higher when bound to something large.

Molecules are shown by their SMILES.

Turning to `Cc1ccc(Oc2ccnc(Nc3ccc(S(=O)(=O)NCCN4CC[C@H](F)C4)cc3)c2)c(C)n1` [Example 137], the IC50 came to 0.163 µM.

For `Cc1cc(Oc2ccnc(Nc3cccc(NS(C)(=O)=O)c3)c2)c(-c2ccccn2)nc1C` [Example 76, N-(3-{[4-(5,6-Dimethyl-2-pyridin-2-ylpyridin-3-yl)oxypyridin-2-yl]-amino}phenyl)methanesulfonamide], the IC50 turned out to be 0.0148 µM.

Consider `Cc1ccc(Oc2ccnc(Nc3ccc(C(=O)NCCN4CCOCC4)cc3)c2)c(C)n1` [Example 220, 4-{[4-(2,6-Dimethylpyridin-3-yl)oxypyridin-2-yl]amino}-N-(2-morpholin-4-ylethyl)benzamide], for which the IC50 worked out at 0.0675 µM. With `Cc1ccc(Oc2ccnc(Nc3cccc(C(=O)N(C4CC4)C4CCN(C)CC4)c3)c2)c(C)n1` [Example 59, N-Cyclopropyl-3-{[4-(2,6-dimethylpyridin-3-yl)oxypyridin-2-yl]-amino}-N-(1-methylpiperidin-4-yl)benzamide] the figure was 0.0214 µM.

`Cc1ccc(Oc2ccnc(Nc3cccc(CN4CCN(CCN5CCNC5=O)CC4)c3)c2)c(C)n1` [Example 192, 1-(2-{4-[(3-{[4-(2,6-Dimethylpyridin-3-yl)oxypyridin-2-yl]-amino}phenyl)methyl]piperazin-1-yl}ethyl)imidazolidin-2-one]: the IC50 stood at 0.0155 µM. With `Cc1ccc(Oc2ccnc(Nc3cccc(C(=O)NC4CC4)c3)c2)c(C)n1` [Example 194A, N-Cyclopropyl-3-{[4-(2,6-dimethylpyridin-3-yl)oxypyridin-2-yl]-amino}benzamide] the figure was 0.0457 µM; with `Cc1ccc(Oc2ccnc(Nc3ccc(S(=O)(=O)Nc4ccccn4)cc3)c2)c(C)n1` [Example 106, 4-[4-(2,6-Dimethylpyridin-3-yloxy)pyridin-2-ylamino]-N-(pyridin-2-yl)benzenesulfonamide], 0.527 µM; with `Cc1ccc(Oc2ccnc(Nc3cccc(S(=O)(=O)N4CCOCC4)c3)c2)c(C)n1` [Example 119, 4-(2,6-Dimethylpyridin-3-yl)oxy-N-(3-morpholin-4-ylsulfonyl-phenyl)pyridin-2-amine], 0.0319 µM. With `Cc1ccc(Oc2ccnc(Nc3cccc(O)c3)c2)c(C)n1` [Example 126, 3-{[4-(2,6-Dimethylpyridin-3-yl)oxypyridin-2-yl]amino}phenol] the figure was 0.0377 µM; with `Cc1cc(Oc2ccnc(Nc3cc(CO)cc(S(N)(=O)=O)c3)c2)c(-c2ccccn2)nc1C` [Example 87, 3-{[4-(5,6-Dimethyl-2-pyridin-2-ylpyridin-3-yl)oxypyridin-2-yl]-amino}-5-(hydroxymethyl)benzenesulfonamide], 0.0731 µM. As to `Cc1ccc(Oc2ccnc(Nc3ccc(S(N)(=O)=O)cc3)c2)c(-c2ccco2)n1` [Example 160, 4-({4-[2-(Furan-2-yl)-6-methylpyridin-3-yl]oxypyridin-2-yl}-amino)benzenesulfonamide], the IC50 came to 0.0128 µM. As to `Cc1ccc(Oc2ccnc(Nc3ccc(CC#N)cc3)c2)c(-c2ccc(F)cc2)n1` [Example 155, 2-[4-({4-[2-(4-Fluorophenyl)-6-methylpyridin-3-yl]oxypyridin-2-yl}amino)phenyl]acetonitrile], the IC50 came out at 0.0816 µM.

Regarding `Cc1ccc(Oc2ccnc(Nc3ccc(C(=O)N(C)C)cc3)c2)c(C)n1` [Example 121, 4-{[4-(2,6-Dimethylpyridin-3-yl)oxypyridin-2-yl]amino}-N,N-dimethylbenzamide], the IC50 amounted to 0.088 µM.

Consider `Cc1ccc(Oc2ccnc(Nc3cccc(NS(C)(=O)=O)c3)c2)c(C)n1` [Example 128, N-(3-{[4-(2,6-Dimethylpyridin-3-yl)oxypyridin-2-yl]amino}-phenyl)methanesulfonamide], for which the IC50 worked out at 0.0321 µM.

In the case of `Cc1ccc(Oc2ccnc(Nc3cccc(C(=O)NCC(N)=O)c3)c2)c(C)n1` [Example 67, N-(2-Amino-2-oxoethyl)-3-{[4-(2,6-dimethylpyridin-3-yl)-oxypyridin-2-yl]amino}benzamide], the IC50 came out at 0.054 µM.

As for `Cc1cc(Oc2ccnc(Nc3ccc(OCCCNC(=O)OC(C)(C)C)cc3)c2)c(-c2ccccn2)nc1C` [Example 196, tert-Butyl N-[3-(4-{[4-(5,6-dimethyl-2-pyridin-2-ylpyridin-3-yl)-oxypyridin-2-yl]amino}phenoxy)propyl]carbamate], the IC50 stood at 0.00903 µM.

As to `Cc1ccc(Oc2ccnc(Nc3ccc(C(N)=O)cc3)c2)c(-c2ccccn2)n1` [Example 146, 4-{[4-(6-Methyl-2-pyridin-2-ylpyridin-3-yl)oxypyridin-2-yl]-amino}benzamide], the IC50 turned out to be 0.0152 µM. As for `Cc1ccc(Oc2ccnc(Nc3cccc(CN4CCN(C)CC4)c3)c2)c(C)n1` [Example 193, 4-(2,6-Dimethylpyridin-3-yl)oxy-N-{3-[(4-methylpiperazin-1-yl)-methyl]phenyl}pyridin-2-amine], the IC50 turned out to be 0.00427 µM.

Take `Cc1ccc(Oc2ccnc(Nc3cccc(CN4CCN(C(=O)CC(N)=O)CC4)c3)c2)c(C)n1` [Example 187, 3-{4-[(3-{[4-(2,6-Dimethylpyridin-3-yl)oxypyridin-2-yl]amino}phenyl)methyl]piperazin-1-yl}-3-oxopropanamide]: the IC50 was 0.0232 µM.

On to `Cc1ccc(Oc2ccnc(Nc3ccccn3)c2)c(-c2ccco2)n1` [Example 161, 4-[2-(Furan-2-yl)-6-methylpyridin-3-yl]oxy-N-pyridin-2-yl-pyridin-2-amine], for which the IC50 is 0.00855 µM. With `CC(=O)Nc1cc(Nc2cc(Oc3ccc(C)nc3C)ccn2)ccc1C` [Example 127, N-(5-{[4-(2,6-Dimethylpyridin-3-yl)oxypyridin-2-yl]amino}-2-methylphenyl)acetamide] the figure was 0.0145 µM; with `Cc1cc(Oc2ccnc(Nc3ccc(C(N)=O)cc3)c2)c(-c2ccccn2)nc1C` [Example 81, 4-{[4-(5,6-Dimethyl-2-pyridin-2-ylpyridin-3-yl)oxypyridin-2-yl]-amino}benzamide], 0.0111 µM; with `Cc1cc(Oc2ccnc(Nc3ccc(C(=O)NCCCNC(=O)OC(C)(C)C)cc3)c2)c(-c2ccccn2)nc1C` [Example 197, tert-Butyl N-{3-[(4-{[4-(5,6-dimethyl-2-pyridin-2-ylpyridin-3-yl)-oxypyridin-2-yl]amino}benzoyl)amino]propyl}carbamate], 0.0061 µM. Next, `COc1cc(Nc2cc(Oc3ccc(C)nc3-c3ccc(F)cc3)ccn2)cc(OC)c1OC` [Example 171, 4-[2-(4-Fluorophenyl)-6-methylpyridin-3-yloxy]-N-(3,4,5-trimethoxyphenyl)pyridin-2-amine]: 0.0239 µM; `Cc1ccc(Oc2ccnc(Nc3ccc(C(=O)NC4CCN(C)CC4)cc3)c2)c(C)n1` [Example 130, 4-[4-(2,6-Dimethylpyridin-3-yloxy)pyridin-2-ylamino]-N-(1-methylpiperidin-4-yl)benzamide]: 0.0189 µM. Consider `Cc1ccc(Oc2ccnc(Nc3cccc(C(=O)N4CCCC(C(N)=O)C4)c3)c2)c(C)n1` (centres unmarked) [Example 68, 1-(3-{[4-(2,6-Dimethylpyridin-3-yl)oxypyridin-2-yl]amino}-benzoyl)piperidine-3-carboxamide], for which the IC50 turned out to be 0.00895 µM.

`Cc1ccc(Oc2ccnc(Nc3cccc(S(N)(=O)=O)c3)c2)c(C)n1` [Example 105, 3-{[4-(2,6-Dimethylpyridin-3-yl)oxypyridin-2-yl]amino}benzene-sulfonamide]: the IC50 amounted to 0.00764 µM. With `Cc1ccc(Oc2ccnc(Nc3cccc(C(=O)NCc4cnccn4)c3)c2)c(C)n1` [Example 64, 3-{[4-(2,6-Dimethylpyridin-3-yl)oxypyridin-2-yl]amino}-N-(pyrazin-2-ylmethyl)benzamide] the figure was 0.0415 µM.

Consider `Cc1ccc(Oc2ccnc(Nc3ccc(S(=O)(=O)NCCN4CCCCC4)cc3)c2)c(C)n1` [Example 134, 4-{[4-(2,6-Dimethylpyridin-3-yl)oxypyridin-2-yl]amino}-N-(2-piperidin-1-ylethyl)benzenesulfonamide], for which the IC50 came out at 0.199 µM.

Turning to `Cc1cc(Oc2ccnc(Nc3cccc(C(=O)NCc4ccccn4)c3)c2)c(-c2ccccn2)nc1C` [Example 99, 3-{[4-(5,6-Dimethyl-2-pyridin-2-ylpyridin-3-yl)oxypyridin-2-yl]-amino}-N-(pyridin-2-ylmethyl)benzamide], the IC50 was 0.00734 µM. With `Cc1ccc(Oc2ccnc(Nc3cccc(C(=O)N(C4CCOCC4)C4CC4)c3)c2)c(C)n1` [Example 60, N-Cyclopropyl-3-{[4-(2,6-dimethylpyridin-3-yl)oxypyridin-2-yl]-amino}-N-(oxan-4-yl)benzamide] the figure was 0.022 µM.

Turning to `Cc1ccc(Oc2ccnc(Nc3ccc(S(N)(=O)=O)cc3)c2)c(-c2ccc(F)cc2)n1` [Example 156, 4-({4-[2-(4-Fluorophenyl)-6-methylpyridin-3-yl]oxypyridin-2-yl}amino)benzenesulfonamide], the IC50 amounted to 0.0454 µM.
